From PubChem BioAssay AID624485 (The Scripps Research Institute Molecular Screening Center, 2012) come the findings set out here.

Where “and” joins values, the source holds several entries; their conditions need not be identical. Equal entries are not always repeated. Calls of active or inactive are those of the source.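 The calls were made as follows: active = over 50% inhibition of probe labelling of the prolyl oligopeptidase-like enzyme in cells; inactive = inhibition at or below 50%.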

Prolyl endopeptidase-like (Mus musculus), sequence (Q8C167 whole entry, looked up): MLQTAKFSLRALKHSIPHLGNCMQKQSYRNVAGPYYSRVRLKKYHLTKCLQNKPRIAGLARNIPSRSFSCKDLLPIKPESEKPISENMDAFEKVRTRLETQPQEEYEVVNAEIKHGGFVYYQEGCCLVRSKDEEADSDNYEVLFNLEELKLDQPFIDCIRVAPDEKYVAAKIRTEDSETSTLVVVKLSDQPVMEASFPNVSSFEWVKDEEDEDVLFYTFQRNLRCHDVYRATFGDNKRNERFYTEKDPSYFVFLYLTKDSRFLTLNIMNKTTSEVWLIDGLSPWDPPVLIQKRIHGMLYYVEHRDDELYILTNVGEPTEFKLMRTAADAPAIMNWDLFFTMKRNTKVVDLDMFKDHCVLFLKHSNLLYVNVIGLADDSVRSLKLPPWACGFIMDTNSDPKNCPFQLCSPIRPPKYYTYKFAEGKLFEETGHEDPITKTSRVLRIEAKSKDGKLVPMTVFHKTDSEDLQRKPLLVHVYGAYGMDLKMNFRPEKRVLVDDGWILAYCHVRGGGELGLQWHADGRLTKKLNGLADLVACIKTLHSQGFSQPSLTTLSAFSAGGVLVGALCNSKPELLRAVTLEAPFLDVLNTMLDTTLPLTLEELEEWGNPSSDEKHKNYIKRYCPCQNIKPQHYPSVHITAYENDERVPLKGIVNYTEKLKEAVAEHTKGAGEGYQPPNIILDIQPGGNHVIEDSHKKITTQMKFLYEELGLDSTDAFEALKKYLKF

This assay has as its target Prolyl endopeptidase-like (Mus musculus) (UniProt Q8C167). The experiment in a line: PREPL inhibition in intact cells, cell-based, click chemistry ABPP, gel, fluorescence (AID 624485). The settings on record: Neuro-2A transfected mPrepl, in situ gel CC-ABPP; at 50 µM; stronger effect = higher value.
Regarding `CCOc1ccc(CCNC(=O)c2ccc3c(=O)[nH]c4c(C(=O)NC(C)C)sc(=S)n4c3c2)cc1`, the inhibition was -29% (inactive) and 0% (inactive).

Take `O=C(Nc1ccc2c(c1)OCCO2)c1cccc2nc3ccccc3nc12`: the inhibition is -26% (inactive).

`N#Cc1c2c(c(-c3ccccc3)[nH]c1=O)CCCC2`: the inhibition is 60%.

Take `CC(C)Cc1[nH]c(=O)c(C#N)c2c1CCC2`: the inhibition is 90%.
